Values belong to the molecule of their own block, whether it stands above or below them.
Tests used:
[1] = biological target: T1, mP2X1 receptor (Mus musculus, UniProt P51576, R139A); assay: cell-based
T1 construct: gene P2rx1

[2] = biological target: T2, mP2X1 receptor (Mus musculus, UniProt P51576); assay: cell-based; set-up: gene P2rx1
T2 sequence (P51576 1-399): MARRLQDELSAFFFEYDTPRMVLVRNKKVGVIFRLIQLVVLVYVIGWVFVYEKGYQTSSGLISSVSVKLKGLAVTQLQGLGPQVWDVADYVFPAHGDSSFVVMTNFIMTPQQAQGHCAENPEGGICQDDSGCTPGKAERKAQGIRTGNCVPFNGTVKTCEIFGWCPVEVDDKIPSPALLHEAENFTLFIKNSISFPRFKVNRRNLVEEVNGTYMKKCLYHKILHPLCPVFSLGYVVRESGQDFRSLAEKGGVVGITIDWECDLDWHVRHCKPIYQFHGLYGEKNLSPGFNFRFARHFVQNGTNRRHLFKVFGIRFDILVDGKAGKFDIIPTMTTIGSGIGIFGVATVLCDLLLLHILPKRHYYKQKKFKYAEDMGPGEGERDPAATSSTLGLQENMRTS

[3] = biological target: T2, mP2X1 receptor; assay: cryo-EM structure of the complex; type: binding; set-up: gene P2rx1; full-length wild type; cryo-EM: Sf9, C-terminal His and Flag tags after HRV-3C site, homotrimer in LMNG; electrophysiology: HEK293, pCDNA3.1, labelled with mCherry
[4] = biological target: T3, mP2X1 receptor (Mus musculus, UniProt P51576, K140A); assay: cell-based
T3 construct: gene P2rx1

[5] = biological target: T4, mP2X1 receptor (Mus musculus, UniProt P51576, K190A); assay: cell-based
T4 construct: gene P2rx1

[6] = biological target: T2, mP2X1 receptor; assay: whole-cell patch clamp, HEK293, ATP-evoked mixed-cation current; type: cell-based; set-up: gene P2rx1; full-length wild type; electrophysiology: HEK293, pCDNA3.1, labelled with mCherry
[7] = biological target: the molecule itself; assay: cryo-EM structure; single-particle cryo-EM of purified mP2X1 in LMNG (20 mM HEPES pH 7.0, 150 mM NaCl, 0.002% LMNG), 4.0 mg/mL; without added Ca2+, with 1, 5 or 10 mM Ca2+, or with 5 mM Ca2+ and 10 uM BTFA

T4 sequence (P51576 whole entry K190A): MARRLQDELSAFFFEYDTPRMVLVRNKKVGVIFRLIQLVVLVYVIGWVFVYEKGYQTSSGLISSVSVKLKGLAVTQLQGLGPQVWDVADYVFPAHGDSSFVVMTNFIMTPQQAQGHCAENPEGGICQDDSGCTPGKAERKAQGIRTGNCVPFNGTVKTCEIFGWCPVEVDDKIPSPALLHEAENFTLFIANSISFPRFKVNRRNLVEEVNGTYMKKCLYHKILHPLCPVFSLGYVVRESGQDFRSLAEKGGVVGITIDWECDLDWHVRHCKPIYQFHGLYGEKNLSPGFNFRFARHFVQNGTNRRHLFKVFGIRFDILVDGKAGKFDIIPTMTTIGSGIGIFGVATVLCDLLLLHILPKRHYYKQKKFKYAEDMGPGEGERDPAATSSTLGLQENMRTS
T1 sequence (P51576 whole entry R139A): as the sequence (P51576 whole entry K190A) above, with R139A, A190K counted along it
T3 sequence (P51576 whole entry K140A): as the sequence (P51576 whole entry K190A) above, with K140A, A190K counted along it

EC50 [1]: 5.29 µM | EC50 [2]: 0.829 µM | EC50 [4]: 10.3 µM | EC50 [5]: 6.74 µM
Molecule: Nc1ncnc2c1ncn2[C@@H]1O[C@H](COP(=O)(O)OP(=O)(O)OP(=O)(O)O)[C@@H](O)[C@H]1O [ATP]
cryo-EM structure of the complex ([3]; co-purified ATP, no exogenous ATP or Ca2+ added, three ATP per trimer, orthosteric site): EM maps revealed the presence of three clear ATP molecules within the structures

IC50 [6]: 4.3 µM
Molecule: Nc1cc(C(F)(F)F)cc(C(F)(F)F)c1 [BTFA, 3,5-bis(trifluoromethyl)aniline]
cryo-EM structure of the complex ([3]; 10 μM BTFA, 5 mM Ca2+, allosteric, top of central vestibule): we determined the cryo-EM structure of the P2X1–BTFA complex

B1: full-length, wild-type mouse P2X1 (mP2X1) receptor (receptor, UniProt P51576 1-399, looked up)
chain: MARRLQDELSAFFFEYDTPRMVLVRNKKVGVIFRLIQLVVLVYVIGWVFVYEKGYQTSSGLISSVSVKLKGLAVTQLQGLGPQVWDVADYVFPAHGDSSFVVMTNFIMTPQQAQGHCAENPEGGICQDDSGCTPGKAERKAQGIRTGNCVPFNGTVKTCEIFGWCPVEVDDKIPSPALLHEAENFTLFIKNSISFPRFKVNRRNLVEEVNGTYMKKCLYHKILHPLCPVFSLGYVVRESGQDFRSLAEKGGVVGITIDWECDLDWHVRHCKPIYQFHGLYGEKNLSPGFNFRFARHFVQNGTNRRHLFKVFGIRFDILVDGKAGKFDIIPTMTTIGSGIGIFGVATVLCDLLLLHILPKRHYYKQKKFKYAEDMGPGEGERDPAATSSTLGLQENMRTS
notes: mouse P2X1 receptor (P2RX1), wild type, full length, cloned from mouse olfactory cortex cDNA; His tag and Flag tag at the C-terminus are connected by an HRV-3C protease recognition site; no cleavage is described; N-linked glycosylation is observed; also called P2RX1; P2XR1; not shown: Flag (1x), C-terminal, kept
stoichiometry N [7]: 3

Source: publication PMC13237026, “Structural basis for a central permeation pathway in the P2X1 receptor” (Cell Discovery, 2026)
